Results from patent US20110144125A1, “Anti-Arrhythmia Agents, Methods of Their Use, Methods of Their Identification and Kits Therefore” (THE UAB RESEARCH FOUNDATION, priority 2008, published 2011).

How the values were obtained:
[1] = system: right ventricular muscle strips and right or left ventricular papillary muscles; experiment: Ventricular muscle model of SMA and STA; design: species or system rat; details: paced at 0.5 Hz, added to the superfusate in appropriate amounts
Description: To further establish this model as a general test for arrhythmic and anti-arrhythmic agents, right ventricular muscle strips and right or left ventricular papillary muscles were isolated from anesthetized rats as cardiac muscle exemplars using methods known to persons skilled in the art. Additional exemplars could include ventricular or atrial conduction system cells and the SAN itself. These muscles were then superfused as described above and paced at 0.5 Hz.

[2] = system: rat left atrial appendage; experiment: 2-APB-induced spontaneous mechanical activity (SMA/SMEs) in isolated superfused rat left atria / left atrial appendage; details: 3 Hz paced; data not shown
Description: Left atria were isolated from male Sprague-Dawley rats (325 to 400 g) under IP pentobarbital anesthesia (0.1 g/kg). Isolated left atria were superfused at 30° C. in Krebs-Henseleit (KH) buffer of the following mM composition: NaCl, 118; NaHCO3, 27; KCl, 4.8; MgSO4, 1.2; KH2PO4, 1.0; CaCl2, 1.8; and glucose, 11.1. Nearly isometric left atrial forces of contraction were measured as described.
Isolated superfused left atria were paced at 3 Hz. 2-APB was added to atrial superfusates from 0.015 or 0.15M DMSO stock solutions to achieve concentrations of 0, 2, 7.5, 15, or 22 μM (n=5 to 10 atria per concentration). Changes in atrial mechanical force were recorded during a subsequent 15 min superfusion.
Two groups of 5 to 6, 3 Hz paced atria were superfused in KH and exposed to 0 or 15 μM 2-APB for 10 min. The pacing stimulus was interrupted for 5 min and the number of spontaneous mechanical events (SMEs), defined as increases in mechanical force occurring in the absence of pacing, were measured as was the postrest potentiation response (PRP).
To determine whether diastolic interval affected the interaction between 2-APB and left atria, atrial pacing was decreased to 0.1 Hz, and 0, 7.5, or 22 μM 2-APB was added to the superfusate (n=6-8 per group). Superfusions continued for 15 min, and changes in atrial mechanical function were observed.
To establish whether SMA was reversible, atria (n=7) were paced at 0.1 Hz, exposed to 15 μM 2-APB for 10 min, and washed with KH. The effect of removing 2-APB on atrial mechanical function was recorded.
To test whether an anion transport inhibitor affected SMA, atria (n=7) were paced at 0.1 Hz in KH and exposed to 15 μM 2-APB. Following the appearance of SMA, they were titrated with 100 to 400 μM DIDS for 3 to 5 min at each concentration. Whether SMA occurred at the end of each titration period was recorded.
Left atria (n=10 per group) were paced at 0.1 Hz and treated with (i) 20 μM 2-APB for 10 min, (ii) with 30 nM isoproterenol for 5 min followed by 20 μM 2-APB for 10 min, and (iii) with 3 μM forskolin for 5 min followed by 20 μM 2-APB for 10 min.
The appendages then were titrated with increasing concentrations of 2-APB, and SMA was measured and recorded.
(§1) To determine the anti-arrhythmic activity of gossypol, isolated rat left atrial appendage and right ventricular muscle strips were used as model systems, as described above. Heart muscle was exposed to 20 μM 2-APB for 10 min to induce SMA, and rates of SMA were recorded as a percentage of initial SMA. The muscles then were titrated with up to 5 increasing concentrations of gossypol. Rates of SMA were recorded ˜10 min after the addition of concentration of the polyphenol.
To determine whether EGCG can prevent arrhythmia, rat left atrial appendages (n=9) were exposed to 20 μM 2-APB and rates of SMA were recorded. Groups of muscles (n=6 per) were pre-treated with 30 μM EGCG for 10 min following which they were exposed to 2-APB. Rates of SMA were recorded 10 min later.
as §1, with “whether EGCG is effective to reverse arrhythmia,” for “the anti-arrhythmic activity of gossypol,”, “Rat left atrial appendages were” for “Heart muscle was”, “left atrial appendages” for “muscles”, “the following polyphenols: EGCG, gossypol, resveratrol, and quercetin.” for “gossypol.”
To determine whether EGC can prevent arrhythmia, left atrial appendages (n=9) were exposed to 20 μM 2-APB and rates of SMA were recorded. Groups of appendages (n=6 per) were pre-treated with 30 μM EGC for 10 min following which they were exposed to 2-APB.

[3] = system: rat left atrial appendage; experiment: ATXII-induced triggered activity and transition to automaticity in left atrial appendage
Description: There are two types of afterdepolarizations; early afterdepolarizations (EADs) that occur early during repolarization and delayed afterdepolarizations (DADs) that occur in fully repolarized, resting myocytes (FIG. 4). Both EADs and DADs are defined as “triggered” activities as they require a preceding normal action potential to occur (FIG. 3B). One model to elicit EADs is to expose heart muscle or myocytes to Anemonia sulcata Toxin II (ATX II). This 47 amino acid peptide specifically enhances late sodium current and prolongs the action potential duration (FIG. 3D; middle panel). This leads to calcium loading of heart muscle followed by EADs during phase 2 or phase 3 of the action potential (FIGS. 3D & 5). These EADs, if of sufficient magnitude, produce ectopic mechanical events (FIG. 3B; ‡).
In embodiments of the assay an agent to induce arrhythmia will be introduced in the muscle. The arrhythmic agent may be chemical or physical. If the agent is chemical, it can be any chemical agent known by those skilled in the art to induce arrhythmia. The chemical agent will be introduced at a concentration sufficient to induce arrhythmia. If a certain type of arrhythmia is the subject of the assay (for example, triggered activity, tachycardia or any other type of arrhythmia), then the agent should be present at a concentration sufficient to produce the certain type of arrhythmia. One acceptable agent is anemone toxin II (“ATX II,”), the toxin of Anemone sulcata. ATX II is a sodium channel regulator.
It was tested whether the altered voltage-independent calcium homeostasis which 2-APB provokes is sufficient to initiate frank automaticity from triggered activity.

Compound | ventricular SMA [1] | SMEs per min compared with 2-APB [2] | ATXII concentration provoking automatic activity [3] | effect on action potential ([3]; 30 nM ATXII, paced at 1 Hz) | ATXII concentration inducing triggered activity / aftercontractions ([3]; paced left atrial appendages)
c1ccc(B(OB(c2ccccc2)c2ccccc2)c2ccccc2)cc1 [diphenyl boronic anhydride] | ventricular SMA was observed | gave similar results |  |  | 
ATXII: 47 amino acid peptide that enhances late sodium current and prolongs action potential duration |  |  | > 50 nM | prolongs action potential duration | < 50 nM
